Source: patent US12115152B2, “Pan-RAF kinase inhibitor and use thereof” (HEFEI INSTITUTES OF PHYSICAL SCIENCE, CHINESE ACADEMY OF …, priority 2019, dated 2024)

How the values were obtained:
Format in all cases: cell-based
[1] = tested on: human acute leukemia cell NB4 (expressing KRAS-A18D mutant kinase); experiment: Effect on proliferation of cancer cells, Cell Titer-Glo, 72 hours; settings: NB-4
Procedure: (§1) The compounds of the present invention were tested for their effect on growth of cancer cells (Table 2), to further evaluate the compounds herein for their inhibitory effect on proliferation of cancer cells and their selectivity in inhibiting proliferation of cancer cells.
(§2) The above-mentioned BaF3-FL-BRAF-V600E mutant cell line was constructed by the method as follows. The sequence of human full-length BRAF-V600E mutant kinase region was amplified by PCR, inserted into a MSCV-Puro vector (purchased from Clontech), and stably transfected into mouse BaF3 cells by the retroviral method, and the growth factor IL-3 was removed. Eventually, a cell line dependent on a full-length BRAF-V600E protein having various mutation transferred was obtained.
(§3) In the example, solutions of the test compound in DMSO at different concentrations (0.000508 μM, 0.00152 μM, 0.00457 μM, 0.0137 μM, 0.0411 μM, 0.123 μM, 0.370 μM, 1.11 μM, 3.33 μM, 10 μM) was added to the above cells respectively. The cells were incubated for 72 hours. The number of viable cells was detected with a Cell Titer-Glo (Promega, USA) Cell Viability Assay Kit by quantifying the ATP in viable cells. The values of GI50 (unit) of the compounds of the present invention against each of the test cells were determined.

[2] = tested on: human acute leukemia cell OCI-AML-3 (expressing NRAS-Q61L mutant kinase); experiment: as above; settings: OCI-AML-3 cells
Procedure: as §1, §2, §3

[3] = Effect on proliferation of cells, Cell Titer-Glo, 72 hours; settings: Mus musculus, BaF3 cells
Procedure: The compounds of the present invention were tested for their effect on growth of cancer cells (Table 2), to further evaluate the compounds herein for their inhibitory effect on proliferation of cancer cells and their selectivity in inhibiting proliferation of cancer cells. […]
as §3

[4] = tested on: colorectal cancer cell COLO205 (expressing BRAF-V600E mutant kinase); experiment: Effect on proliferation of cancer cells, Cell Titer-Glo, 72 hours; settings: Homo sapiens, COLO 205
Procedure: as §1
(§4) The cells were incubated for 72 hours. The number of viable cells was detected with a Cell Titer-Glo (Promega, USA) Cell Viability Assay Kit by quantifying the ATP in viable cells. The values of GI50 (unit) of the compounds of the present invention against each of the test cells were determined.

[5] = tested on: mouse BaF3-FL-BRAF-V600E (stably expressing full-length BRAF-V600E mutant kinase); experiment: as above
Procedure: as §1, §4

[6] = tested on: melanoma cell A375 (expressing BRAF-V600E mutant kinase); experiment: as above; settings: Homo sapiens, A-375
Procedure: as §1, §4

SMILES | GI50 [1] | GI50 [2] | GI50 [3] | GI50 [4] | GI50 [5] | GI50 [6]
Cc1ccc(NC(=O)c2cccc(C(F)(F)F)c2)cc1-n1cc(-c2cncc(N3CCNCC3)c2)cn1 [Example 164, N-(4-methyl-3-(4-(5-(piperizan-1-yl)pyrid-3-yl)-1H-pyrazol-1-yl)phenyl)-3-(trifluoromethyl)benzamide] | 35 nM | 9.1 nM | 1600 nM | 71 nM | 4 nM | 120 nM
Cc1ccc(NC(=O)c2cccc(C(F)(F)F)c2)cc1-n1cc(-c2cnccc2OCCCCO)cn1 [Example 166, N-(3-(4-(4-(4-hydroxybutoxy)pyrid-3-yl)-1H-pyrazol-1-yl)-4-methylphenyl)-3-(trifluoromethyl)benzamide] | 69 nM | 19 nM | 2600 nM | 94 nM | 1 nM | 77 nM
Cc1ccc(NC(=O)c2cccc(C(F)(F)F)c2)cc1-n1cc(-c2cnccc2OCCCO)cn1 [Example 162, N-(3-(4-(4-(3-hydoxypropoxy)pyrid-3-yl)-1H-pyrazol-1-yl)-4-methylphenyl)-3-(trifluoromethyl)benzamide] | 61 nM | 11 nM | 5000 nM | 39 nM | 3.9 nM | 32 nM
COCCOc1ccncc1-c1cnn(-c2cc(NC(=O)c3cccc(C(C)(C)C#N)c3)ccc2C)c1 [Example 159, 3-(2-cyanoprop-2-yl)-N-(3-(4-(4-(2-methoxyethoxy)pyrid-3-yl)-1H-pyrazol-1-yl)-4-methylphenyl)benzamide] | 160 nM | 23 nM | 5200 nM | 36 nM | 6.6 nM | 22 nM
Cc1ccc(NC(=O)c2cccc(C(C)C#N)c2)cc1-n1cc(-c2cncc(-c3ccncc3)c2)cn1 (centres unmarked) [Example 6, N-(3-(4-([3,4′-bipyridyl]-5-yl)-1H-pyrazol-1-yl)-4-methylphenyl)-3-(1-cyanoethyl)benzamide] | – | – | 780 nM | 53 nM | 7.5 nM | 57 nM
Cc1ccc(NC(=O)c2cccc(C(C)(C)C#N)c2)cc1-n1cc(-c2cnccc2OCC2CCOCC2)cn1 [Example 72, 3-(2-cyanoprop-2-yl)-N-(4-methyl-3-(4-(4-((tetrahydro-2H-pyran-4-yl)methoxy)pyrid-3-yl)-1H-pyrazol-1-yl)phenyl)benzamide] | – | – | 5800 nM | 100 nM | 5.6 nM | 34 nM
Cc1ccc(NC(=O)c2ccc(C)c(C(F)(F)F)c2)cc1-n1cc(-c2cncc(-c3ccncc3)c2)cn1 [Example 7, N-(3-(4-([3,4′-bipyridyl]-5-yl)-1H-pyrazol-1-yl)-4-methylphenyl)-4-methyl-3-(trifluoromethyl)benzamide] | – | – | 2400 nM | 150 nM | 12 nM | 86 nM
Cc1ccc(NC(=O)c2cccc(C(C)(C)C#N)c2)cc1-n1cc(-c2cnccc2OC2COC2)cn1 [Example 79, 3-(2-cyanoprop-2-yl)-N-(4-methyl-3-(4-(4-(oxetan-3-yloxy)pyrid-3-yl)-1H-pyrazol-1-yl)phenyl)benzamide] | – | – | 4800 nM | 57 nM | < 0.3 nM | 61 nM
Cc1ccc(NC(=O)c2cccc(C(F)(F)F)c2)cc1-n1cc(-c2cnccc2OC2CCOC2)cn1 (centres unmarked) [Example 69, N-(4-methyl-3-(4-(4-((tetrahydrofuran-3-yl)oxy)pyrid-3-yl)-1H-pyrazol-1-yl)phenyl)-3-(trifluoromethyl)benzamide] | – | – | 1200 nM | 61 nM | 16 nM | 35 nM
Cc1ccc(NC(=O)c2cccc(C(C)(C)C#N)c2)cc1-n1cc(-c2cncc(OC3COC3)c2)cn1 [Example 84, 3-(2-cyanoprop-2-yl)-N-(4-methyl-3-(4-(5-(oxetan-3-yloxy)pyrid-3-yl)-1H-pyrazol-1-yl)phenyl)benzamide] | – | – | 8600 nM | 130 nM | < 0.3 nM | 99 nM
Cc1ccc(NC(=O)c2cccc(C(F)(F)F)c2)cc1-n1cc(-c2cncc(OCC3CCOC3)c2)cn1 (centres unmarked) [Example 66, N-(4-methyl-3-(4-(5-((tetrahydrofuran-3-yl)methoxy)pyrid-3-yl)-1H-pyrazol-1-yl)phenyl)-3-(trifluoromethyl)benzamide] | – | – | 3000 nM | 230 nM | 18 nM | 71 nM
Cc1ccc(NC(=O)c2ccc(CN3CCN(C)CC3)c(C(F)(F)F)c2)cc1-n1cc(-c2cncc(N3CCOCC3)c2)cn1 [Example 12, N-(4-methyl-3-(4-(5-morpholinopyrid-3-yl)-1H-pyrazol-1-yl)phenyl)-4-((4-methylpiperazin-1-yl)methyl)-3-(trifluoromethyl)benzamide] | – | – | 210 nM | 45 nM | 7.4 nM | 97 nM
Cc1ccc(NC(=O)c2cccc(C(C)(C)C#N)c2)cc1-n1cc(-c2cnccc2OCCCCO)cn1 [Example 165, 3-(2-cyanoprop-2-yl)-N-(3-(4-(4-(4-hydroxybutoxy)pyrid-3-yl)-1H-pyrazol-1-yl)-4-methylphenyl)benzamide] | 75 nM | 14 nM | 1800 nM | 190 nM | < 0.3 nM | 40 nM
Cc1ccc(NC(=O)Cc2cccc(C(F)(F)F)c2)cc1-n1cc(-c2cncc(-c3ccncc3)c2)cn1 [Example 71, N-(3-(4-([3,4′-bipyrid]-5-yl)-1H-pyrazol-1-yl)-4-methylphenyl)-2-(3-(trifluoromethyl)phenyl)acetamide] | – | – | 1100 nM | 56 nM | 28 nM | 79 nM
Cc1ccc(NC(=O)c2cccc(C(F)(F)F)c2)cc1-n1cc(-c2cnccc2OC2COC2)cn1 [Example 82, N-(4-methyl-3-(4-(4-(oxetan-3-yloxy)pyrid-3-yl)-1H-pyrazol-1-yl)phenyl)-3-(trifluoromethyl)benzamide] | – | – | 3200 nM | 83 nM | 4 nM | 97 nM
Cc1ccc(NC(=O)c2cccc(C(C)(C)C#N)c2)cc1-n1cc(-c2cncc(N3CCNCC3)c2)cn1 [Example 163, 3-(2-cyanoprop-2-yl)-N-(4-methyl-3-(4-(5-(piperizan-1-yl)pyrid-3-yl)1H-pyrazol-1-yl)phenyl)benzamide] | 44 nM | 10 nM | 1600 nM | 39 nM | 18 nM | 160 nM
Cc1ccc(NC(=O)c2cccc(C(C)(C)C#N)c2)cc1-n1cc(-c2cncc(OCCCN3CCOCC3)c2)cn1 [Example 47, 3-(2-cyanoprop-2-yl)-N-(4-methyl-3-(4-(5-(3-morpholinopropoxy)pyrid-3-yl)-1H-pyrazol-1-yl)phenyl)benzamide] | – | – | 600 nM | 15 nM | 1.3 nM | 17 nM
Cc1ccc(NC(=O)c2cccc(C(C)(C)C#N)c2)cc1-n1cc(-c2cnccc2OC2CCOCC2)cn1 [Example 56, 3-(2-cyanoprop-2-yl)-N-(4-methyl-3-(4-(4-((tetrahydro-2H-pyran-4-yl)oxy)pyrid-3-yl)-1H-pyrazol-1-yl)phenyl)benzamide] | – | – | 4100 nM | 119 nM | < 0.3 nM | 77 nM
Cc1ccc(NC(=O)c2cccc(C(C)(C)C#N)c2)cc1-n1cc(-c2cnccc2OCCCO)cn1 [Example 161, 3-(2-cyanoprop-2-yl)-N-(3-(4-(4-(3-hydorxypropoxy)pyrid-3-yl)-1H-pyrazol-1-yl)-4-methylphenyl)benzamide] | 95 nM | 12 nM | 3600 nM | 55 nM | 2.3 nM | 14 nM
Cc1ccc(NC(=O)c2cccc(Cl)c2)cc1-n1cc(-c2cccnc2)cn1 [compound 2, 3-chloro-N-(4-methyl-3-(4-(pyrid-3-yl)-1H-pyrazol-1-yl)phenyl)benzamide, reference compound] | – | – | 9300 nM | 3300 nM | 240 nM | 1600 nM
Cc1ccc(NC(=O)c2cccc(C(C)(C)C#N)c2)cc1-n1cc(-c2cncc(OCC3CCOC3)c2)cn1 (centres unmarked) [Example 65, 3-(2-cyanoprop-2-yl)-N-(4-methyl-3-(4-(5-((tetrahydrofuran-3-yl)methoxy)pyrid-3-yl)-1H-pyrazol-1-yl)phenyl)benzamide] | – | – | 1700 nM | 35 nM | 1.3 nM | 16 nM
